# According to patent publication US20250281462A1, “THERAPEUTICALLY EFFECTIVE ORAL ADMINISTRATION OF A 2 ARYLBENZIMIDAZOLE” (Tranquis Therapeutics, Inc., priority 2021, published 2025):
# Several values for one entry are separate records, joined by “and”; a condition that tells them apart may be missing. Equal values may be shown once. Read-outs that look alike come from different tables or passages of the source.
# Columns and labels:
# [1] = Plasma and brain concentrations after single oral dose 45 mg/kg in mice; type: in vivo; conditions: TQS-168 45 mg/kg p.o.
# Procedure: Mice were administered a single oral dose of 45 mg/kg TQS-168. TQS-168 was prepared at a concentration of 5.0 mg/mL as a solution in 10% polyethylene glycol (PEG) 400|130% Kleptose (Roquette) 60% water.
# Concentrations in plasma and in brain were measured at various timepoints and various pharmacokinetic parameters were calculated, as shown below in Tables 4 and 5 and in FIGS. 19A and 19B.
# TQS-168 was prepared as a 4.5 mg/ml solution in PEG400 10%| Kleptose 30% sterile water 60%. A single oral dose of 45 mg/kg was administered. Concentrations of TQS-621 were measured in plasma and brain over time.
# [2] = human, in vivo, 120 mg
# [3] = human, in vivo
# [4] = Plasma concentrations of TQS-168 and TQS-621 after single oral dose 50 mg/kg in mice, three formulations; type: in vivo; conditions: mice plasma, TQS-168 50 mg/kg p.o.
# Procedure: In a second experiment, mice were administered 50 mg/kg TQS-168 by oral gavage. For Group 1, TQS-168 was prepared at a concentration of 5.0 mg/mL in a suspension with […] in PBS. For Group 2, TQS-168 was prepared at a concentration of 5.0 mg/mL as a solution in 10 polyethylene glycol (PEG) 400|30 Kleptose (Roquete)|60% water.
# Plasma exposures for Group 1 mice (ng/mL) are presented in Table 2 and for Group 2 mice in Table 3.
# C57BL/6 male mice were administered a single dose of TQS-168 at 50 mg/kg using one of three formulations: Group 1-5.0 mg/ml suspension in 0.5% methylcellulose in PBS; Group 2-5.0 mg/ml solution in PEG400 (Fluka) 10%|Kleptose (Roquette) 30%|sterile water 60%; Group 3-5.0 mg/ml suspension in Labrafil M 1944 CS (Gattefosse) 30%|Masine CC (Gattefosse) 5%|Miglyol 812N 10%|sterile water 55%.
# Plasma concentrations of TQS-168 and TQS-621 were measured overtime.
# [5] = mouse, po, mice brain, solution PEG 400/Kleptose/water
# [6] = mouse, po, mice plasma, solution PEG 400/Kleptose/water
# [7] = male, C57BL/6, mouse, plasma, po, 50 mg/kg, Group 1 (suspension, 0.5% methylcellulose in PBS), mean
# [8] = male, C57BL/6, mouse, plasma, po, 50 mg/kg, Group 2 (solution, PEG400/Kleptose/water), individual mouse
# [9] = male, C57BL/6, mouse, plasma, po, 50 mg/kg, Group 2 (solution, PEG400/Kleptose/water), mean
# [10] = male, C57BL/6, mouse, plasma, po, 50 mg/kg, Group 3 (suspension, Labrafil/Masine/Miglyol/water), individual mouse
# [11] = male, C57BL/6, mouse, plasma, po, 50 mg/kg, Group 3 (suspension, Labrafil/Masine/Miglyol/water), mean
# [12] = Group 1 (suspension, 0.5% methylcellulose in PBS), individual mouse
# [13] = Group 2 (solution, PEG400/Kleptose/water), individual mouse
# [14] = Group 2 (solution, PEG400/Kleptose/water), mean
# [15] = Group 3 (suspension, Labrafil/Masine/Miglyol/water), individual mouse
smiles,measurement,setting,value
CC(C)(C)c1ccc(-c2nc3cc(O)ccc3[nH]2)cc1 [TQS-621],AUClast Ratio (Metabolites/Parent),"[1]; mice brain, solution",0.172
same,Cmax Ratio (Metabolite/Parent),"[1]; mice brain, solution",0.159
same,AUCInf,"[1]; mice brain, solution PEG 400/Kleptose/water",4282 ng·h/g
same,AUClast,"[1]; mice brain, solution PEG 400/Kleptose/water, last time point 24 hr",4234 ng·h/g
same,Cmax,[1]; [5],678 ng/g
same,Tmax,[1]; [5],4 h
same,half-life,[1]; [5],4.85 h
same,AUC(0-inf),[1]; [6],4310 ng·h/mL
same,Cmax,[1]; [6],692 ng/mL
same,Tmax,[1]; [6],4 h
same,AUC(0-t),"[1]; mouse, po, mice plasma, solution PEG 400/Kleptose/water, last time point 24 hr",4280 ng·h/mL
same,AR AUC,[2],1.46
same,AR Cmax,[2],1.03
same,T1/2,[2]; male,10.2 h
same,Tmax,[2]; male,1.75 h
same,accumulation ratio based on AUC(0-tau),"[2]; male, 7 days",1.46
same,accumulation ratio based on Cmax,"[2]; male, 7 days",1.30
same,MPR AUC(0-inf),"[3]; po, 60 mg",5.63
same,MPR Cmax,"[3]; po, 60 mg",2.44
same,MPR AUC(0-inf),"[3]; po, 90 mg",6.16
same,MPR Cmax,"[3]; po, 90 mg",1.93
same,MPR AUC(0-inf),"[3]; po, 270 mg",5.92
same,MPR Cmax,"[3]; po, 270 mg",2.62
same,MPR AUC(0-inf),"[3]; po, 540 mg",7.91
same,MPR Cmax,"[3]; po, 540 mg",3.43
same,Frel AUC(0-inf),"[3]; male, 180 mg",63.6%
same,Frel AUC(0-last),"[3]; male, 180 mg",63.5%
same,Frel Cmax,"[3]; male, 180 mg",64.9%
same,AUC(0-24),"[3]; male, po, 60 mg",383 ng·h/mL
same,AUC(0-inf),"[3]; male, po, 60 mg",410 ng·h/mL
same,Cmax,"[3]; male, po, 60 mg",65.3 ng/mL
same,T1/2,"[3]; male, po, 60 mg",4.89 h
same,Tmax,"[3]; male, po, 60 mg",2.50 h
same,AUC(0-24),"[3]; male, po, 90 mg",1170 ng·h/mL
same,AUC(0-inf),"[3]; male, po, 90 mg",1200 ng·h/mL
same,AUC(0-last),"[3]; male, po, 90 mg",1190 ng·h/mL
same,Cmax,"[3]; male, po, 90 mg",214 ng/mL
same,T1/2,"[3]; male, po, 90 mg",4.79 h
same,Tmax,"[3]; male, po, 90 mg",1.25 h
same,AUC(0-24),"[3]; male, po, 270 mg",4250 ng·h/mL
same,AUC(0-inf),"[3]; male, po, 270 mg",4950 ng·h/mL
same,Cmax,"[3]; male, po, 270 mg",621 ng/mL
same,T1/2,"[3]; male, po, 270 mg",10.4 h
same,Tmax,"[3]; male, po, 270 mg",2.00 h
same,AUC(0-24),"[3]; male, po, 540 mg",10800 ng·h/mL
same,AUC(0-inf),"[3]; male, po, 540 mg",12700 ng·h/mL
same,Cmax,"[3]; male, po, 540 mg",1110 ng/mL
same,T1/2,"[3]; male, po, 540 mg",11.3 h
same,Tmax,"[3]; male, po, 540 mg",4.00 h
same,Cmax,"[4]; male, C57BL/6, mouse, plasma, po, 50 mg/kg, Group 1 (suspension, 0.5% methylcellulose in PBS), individual mouse, read-out: Cmax",239 ng/mL
same,Tmax,"[4]; male, C57BL/6, mouse, plasma, po, 50 mg/kg, Group 1 (suspension, 0.5% methylcellulose in PBS), individual mouse, read-out: tmax",1 h
same,AUC(0-inf),[4]; [7],8200 ng·h/mL
same,AUC(0-t),[4]; [7],1590 ng·h/mL
same,half-life,[4]; [7],28.3 h
same,Cmax,"[4]; male, C57BL/6, mouse, plasma, po, 50 mg/kg, Group 1 (suspension, 0.5% methylcellulose in PBS), mean, read-out: Cmax",235 ng/mL
same,Tmax,"[4]; male, C57BL/6, mouse, plasma, po, 50 mg/kg, Group 1 (suspension, 0.5% methylcellulose in PBS), mean, read-out: tmax",1.33 h
same,AUC(0-inf),[4]; [8],3110 ng·h/mL
same,AUC(0-t),[4]; [8],2880 ng·h/mL
same,half-life,[4]; [8],2.92 h
same,Cmax,"[4]; male, C57BL/6, mouse, plasma, po, 50 mg/kg, Group 2 (solution, PEG400/Kleptose/water), individual mouse, read-out: Cmax",487 ng/mL
same,Tmax,"[4]; male, C57BL/6, mouse, plasma, po, 50 mg/kg, Group 2 (solution, PEG400/Kleptose/water), individual mouse, read-out: tmax",2 h
same,AUC(0-inf),[4]; [9],2960 ng·h/mL
same,AUC(0-t),[4]; [9],2750 ng·h/mL
same,half-life,[4]; [9],2.9 h
same,Cmax,"[4]; male, C57BL/6, mouse, plasma, po, 50 mg/kg, Group 2 (solution, PEG400/Kleptose/water), mean, read-out: Cmax",449 ng/mL
same,Tmax,"[4]; male, C57BL/6, mouse, plasma, po, 50 mg/kg, Group 2 (solution, PEG400/Kleptose/water), mean, read-out: tmax",1.67 h
same,AUC(0-inf),[4]; [10],612 ng·h/mL
same,AUC(0-t),[4]; [10],564 ng·h/mL
same,Cmax,"[4]; male, C57BL/6, mouse, plasma, po, 50 mg/kg, Group 3 (suspension, Labrafil/Masine/Miglyol/water), individual mouse, read-out: Cmax",98.9 ng/mL
same,AUC(0-inf),[4]; [11],584 ng·h/mL
same,AUC(0-t),[4]; [11],533 ng·h/mL
same,half-life,[4]; [11],2.58 h
same,Cmax,"[4]; male, C57BL/6, mouse, plasma, po, 50 mg/kg, Group 3 (suspension, Labrafil/Masine/Miglyol/water), mean, read-out: Cmax",92 ng/mL
same,Tmax,"[4]; male, C57BL/6, mouse, plasma, po, 50 mg/kg, Group 3 (suspension, Labrafil/Masine/Miglyol/water), mean, read-out: tmax",3.33 h
same,AUCInf,[4]; [12],1163 ng·h/mL and 22064 ng·h/mL and 1379 ng·h/mL
same,AUClast,[4]; [12],1148 ng·h/mL and 2355 ng·h/mL and 1267 ng·h/mL
same,Cmax,[4]; [12],309 ng/mL and 156 ng/mL
same,t1/2,[4]; [12],1.88 h and 80.8 h and 2.08 h
same,AUCInf,[4]; [13],2962 ng·h/mL and 2817 ng·h/mL
same,AUClast,[4]; [13],2862 ng·h/mL and 2513 ng·h/mL
same,Cmax,[4]; [13],483 ng/mL and 378 ng/mL
same,t1/2,[4]; [13],2.17 h and 3.61 h
same,AUClast Ratio (Metabolite/Parent),[4]; [14],0.256
same,Cmax Ratio (Metabolite/Parent),[4]; [14],0.211
same,AUCInf,[4]; [15],621 ng·h/mL and 519 ng·h/mL
same,AUClast,[4]; [15],532 ng·h/mL and 504 ng·h/mL
same,Cmax,[4]; [15],117 ng/mL and 58.7 ng/mL
same,Tmax,[4]; [15],8 h
same,t1/2,[4]; [15],3.43 h and 2.93 h and 1.38 h
